Experimental data reported in patent US9365523B2, “Imidazolyl amide compounds and uses related thereto” (priority 2011, dated 2016).

system: MeV-Alaska; assay: Antiviral activity of compound analogs against MeV-Alaska (tables 1-5); type: cell-based, measles virus; details: Measles morbillivirus; Table 5

Row | SMILES | EC50
1 | COc1ccc(-n2c(SC(C)C(=O)N3CCCCC3)nc3ccccc32)cc1 (centres unmarked) [Compound 124] | > 75 µM
2 | COc1ccc(-n2c([S+]([O-])C(C)C(=O)Nc3ccc(C)cc3Cl)nc3ccccc32)cc1 (centres unmarked) [Compound 125] | 1.8 µM
3 | CCOC(=O)c1ccc2[nH]c(SC(C)C(=O)Nc3ccc(C)cc3Cl)nc2c1 (centres unmarked) [Compound 126] | > 75 µM
4 | COc1ccc(Cn2c(NC(C)C(=O)Nc3ccc(C)cc3Cl)nc3ccccc32)cc1 (centres unmarked) [Compound 127] | > 75 µM

same assay, conditions: Table 2

Row | SMILES | EC50
5 | COc1ccc(-n2c(SC(C)C(=O)Nc3ccc(C)cc3Cl)nc3ccccc32)cc1 (centres unmarked) [Compound 86] | 0.17 µM
6 | COc1cc(OC)cc(-n2c(SC(C)C(=O)Nc3ccc(C)cc3Cl)nc3ccccc32)c1 (centres unmarked) [Compound 87] | 0.4 µM
7 | Cc1ccc(NC(=O)C(C)Sc2nc3ccccc3n2C2CCCCC2)c(Cl)c1 (centres unmarked) [Compound 88] | 0.29 µM
8 | Cc1ccc(NC(=O)C(C)Sc2nc3ccccc3n2S(=O)(=O)C2CCCCC2)c(Cl)c1 (centres unmarked) [Compound 89] | 0.61 µM
9 | Cc1ccc(NC(=O)C(C)Sc2nc3ccccc3n2S(=O)(=O)c2ccccc2)c(Cl)c1 (centres unmarked) [Compound 90] | 0.04 µM
10 | Cc1ccc(NC(=O)C(C)Sc2nc3ccccc3n2C(=O)c2ccccc2)c(Cl)c1 (centres unmarked) [Compound 91] | > 9.3 µM
11 | Cc1ccc(NC(=O)C(C)Sc2nc3ccccc3n2C2CCNCC2)c(Cl)c1 (centres unmarked) [Compound 92] | > 75 µM
12 | Cc1ccc(NC(=O)C(C)Sc2nc3ccccc3n2C2CCN(C(=O)OC(C)(C)C)CC2)c(Cl)c1 (centres unmarked) [Compound 93] | 0.6 µM
13 | Cc1ccc(NC(=O)C(C)Sc2nc3ccccc3n2C2CCN(C)CC2)c(Cl)c1 (centres unmarked) [Compound 94] | 1.5 µM
14 | Cc1ccc(NC(=O)C(C)Sc2nc3ccccc3n2-c2ccc(N=[N+]=[N-])cc2)c(Cl)c1 (centres unmarked) [Compound 95] | 0.31 µM
15 | Cc1ccc(NC(=O)C(C)Sc2nc3ccccc3n2-c2ccc(C(=O)O)cc2)c(Cl)c1 (centres unmarked) [Compound 97] | > 75 µM
16 | Cc1ccc(NC(=O)C(C)Sc2nc3ccccc3n2-c2ccc(CN(C)C)cc2)c(Cl)c1 (centres unmarked) [Compound 98] | 1.4 µM
17 | COC(=O)c1ccc(-n2c(SC(C)C(=O)Nc3ccc(C)cc3Cl)nc3ccccc32)cc1 (centres unmarked) [Compound 99] | 1.1 µM

same assay, conditions: Table 3

Row | SMILES | EC50
18 | CC(Sc1nc2ccccc2n1-c1ccc(F)cc1)C(=O)Nc1ncc(Cl)cc1Cl (centres unmarked) [Compound 101] | 0.3 µM
19 | CCOc1ccc(-n2c(SC(C)C(=O)Nc3ncc(Cl)cc3Cl)nc3ccccc32)cc1 (centres unmarked) [Compound 102] | 0.2 µM
20 | CC(Sc1nc2ccccc2n1-c1ccc(O)cc1)C(=O)Nc1ncc(Cl)cc1Cl (centres unmarked) [Compound 103] | 7.7 µM
21 | Cc1nnc(NC(=O)C(C)Sc2nc3ccccc3n2-c2ccc(F)cc2)nc1C (centres unmarked) [Compound 106] | 23 µM
22 | COc1ccc(Cn2c(SC(C)C(=O)Nc3ncc(C)cc3Cl)nc3ccccc32)cc1 (centres unmarked) [Compound 107] | 0.8 µM
23 | COc1cccc(-n2c(SC(C)C(=O)Nc3ncc(C)cc3Cl)nc3ccccc32)c1 (centres unmarked) [Compound 108] | 0.4 µM
24 | Cc1cnc(NC(=O)C(C)Sc2nc3ccccc3n2-c2ccccc2)c(Cl)c1 (centres unmarked) [Compound 109] | 0.13 µM
25 | CCOc1ccc(-n2c(SC(C)C(=O)Nc3ccc([N+](=O)[O-])cc3C)nc3ccccc32)cc1 (centres unmarked) [Compound 110] | > 9.3 µM
26 | CC(Sc1nc2ccccc2n1Cc1ccccc1)C(=O)Nc1ncc(Cl)cc1Cl (centres unmarked) [Compound 111] | 4.9 µM
27 | CC(Sc1nc2ccccc2n1C)C(=O)Nc1ncc(Cl)cc1Cl (centres unmarked) [Compound 113] | > 10 µM
28 | CCOc1ccc(-n2c(SC(C)C(=O)Nc3cc(C)cc(C)n3)nc3ccccc32)cc1 (centres unmarked) [Compound 115] | 1.5 µM
29 | Cc1cnc(NC(=O)C(C)Sc2nc3ccccc3n2-c2ccc(F)cc2)c(Cl)c1 (centres unmarked) [Compound 116] | 0.8 µM
30 | COc1ccc(Cn2c(SC(C)C(=O)Nc3ccc(Cl)cc3Cl)nc3ccccc32)cc1 (centres unmarked) [Compound 117] | 1.7 µM
31 | COc1cc(OC)cc(-n2c(SC(C)C(=O)Nc3ncc(C)cc3Cl)nc3ccccc32)c1 (centres unmarked) [Compound 118] | 0.8 µM
32 | Cc1cccc(-n2c(SC(C)C(=O)Nc3ncc(C)cc3Cl)nc3ccccc32)c1 (centres unmarked) [Compound 119] | 0.09 µM
